Experimental data as given in US20110183842A1, “Triazole and Imidazole Compounds, Use Thereof and Agents Containing Them” (BASF SE, priority 2008, published 2011).

Test system: Phakopsora pachyrhizi
Experiment: Curative activity against soybean rust caused by Phakopsora pachyrhizi (greenhouse, soybean seedlings)
Format: in vivo
Settings: 300 ppm active compound, sprayed to runoff two days after inoculation of soybean seedlings, rated after a further 10 days; untreated plants 90% infected
Protocol: The active compounds were prepared separately or together as a stock solution with 25 mg of active compound, which was made up to 10 ml with a mixture of acetone and/or DMSO and the emulsifier Uniperol® EL (wetting agent with emulsifying and dispersant action based on ethoxylated alkylphenols) in the volume ratio solvent/emulsifier of from 99 to 1. Subsequently, it was made up to 100 ml with water. This stock solution was diluted with the described solvent/emulsifier/water mixture to the active compound concentration indicated below. Alternatively to this, the active compounds were used as a commercially available ready-to-use solution and diluted with water to the active compound concentration indicated.
Leaves of soybean seedlings grown in pots were inoculated with a spore suspension of soybean rust (Phakpsora pachyrhizi). The pots were then placed in a chamber of high atmospheric humidity (90 to 95%) and 23 to 27° C. for 24 hours. During this time, the spores germinated and the germ tubes penetrated into the leaf tissue. The infected plants were then cultivated further in a greenhouse at temperatures between 23 and 27° C. and 60 to 80% relative atmospheric humidity. After two days, the plants were sprayed to runoff point with the active compound solution described above at the active compound concentration indicated below. After the spray coating had dried on, the test plants were cultivated in a greenhouse at temperatures between 23 and 27° C. and 60 to 80% relative atmospheric humidity for a further 10 days. The extent of the rust fungus development on the leaves was then determined visually in % infection.

Structure (SMILES) | extent of the rust fungus development on the leaves, determined visually in % infection
CC(C)(C)C(O)C(CCCCOc1ccccc1F)n1ncnc1S (stereo not drawn) [I.A1, 8-(2-fluorophenoxy)-4-(5-mercapto-[1,2,4]triazol-1-yl)-2,2-dimethyloctan-3-ol] | 15%
CC(C)(C)C(O)C(CCCCOc1cc(F)ccc1F)n1ncnc1S (stereo not drawn) [I.A4, 8-(2,5-difluorophenoxy)-4-(5-mercapto-[1,2,4]triazol-1-yl)-2,2-dimethyloctan-3-ol] | 15%
CC(C)(C)C(O)C(CCCCOc1c(F)cccc1Cl)n1ncnc1S (stereo not drawn) [I.A5, 8-(2-Chloro-6-fluorophenoxy)-4-(5-mercapto-[1,2,4]triazol-1-yl)-2,2-dimethyloctan-3-ol] | 15%
